Here are results for eleven compounds from US20180000085A1, “USE OF PICOLINAMIDE COMPOUNDS WITH FUNGICIDAL ACTIVITY” (DOW AGROSCIENCES LLC, priority 2014, published 2018).

Each structure is given as a SMILES string.

The test system of one test is Zymoseptoria tritici. Briefly: Leaf blotch of wheat (SEPTTR) disease control on wheat seedlings. The test is classed as in vivo. Set-up: key to SEPTTR 1DP, HV activity at 100 ppm (% control rating) / SEPTTR 3DC, HV activity at 100 ppm (% control rating) / SEPTTR disease control, 1DP / SEPTTR disease control, 3DC / SEPTTR 1DP disease control rating, HV activity / SEPTTR 3DC disease control rating, HV activity / SEPTTR 3DC, LV activity at 125.1 g/H (% Control rating) / SEPTTR 1DP, LV activity at 125.1 g/H (% Control rating) / SEPTTR 1DP disease control rating, LV activity at 125.1 g/H / SEPTTR 3DC disease control rating, LV activity at 125.1 g/H / SEPTTR 3DC disease control rating, HV activity at 100 ppm / SEPTTR 1DP disease control rating, HV activity at 100 ppm / HV activity at 100 ppm SEPTTR 3DC (disease control rating) / HV activity at 100 ppm SEPTTR 1DP (disease control rating) / LV activity at 125.1 g/H SEPTTR 1DP (disease control rating) / LV activity at 125.1 g/H SEPTTR 3DC (disease control rating): A: > 80; B: ≤ 80; C: Not Tested; D: No Activity Observed in the Reported Assay. The conditions noted are these: for HV activity at 100 ppm SEPTTR 1DP (disease control rating) / HV activity at 100 ppm SEPTTR 3DC (disease control rating): HV application.

For the next test, the system named is Puccinia triticina. In words: Wheat brown rust (PUCCRT) disease control on wheat seedlings. The format is in vivo. Set-up: key to PUCCRT 3DC, HV activity at 100 ppm (% control rating) / PUCCRT disease control, 3DC / PUCCRT 1DP disease control rating, HV activity / PUCCRT 3DC disease control rating, HV activity / PUCCRT 3DC, LV activity at 125.1 g/H (% Control rating) / PUCCRT 1DP, LV activity at 125.1 g/H (% Control rating) / PUCCRT 3DC disease control rating, LV activity at 125.1 g/H / PUCCRT 1DP disease control rating, LV activity at 125.1 g/H / PUCCRT 3DC disease control rating, HV activity at 100 ppm / PUCCRT 1DP disease control rating, HV activity at 100 ppm / HV activity at 100 ppm PUCCRT 3DC (disease control rating) / LV activity at 125.1 g/H PUCCRT 1DP (disease control rating) / LV activity at 125.1 g/H PUCCRT 3DC (disease control rating): A: > 80; B: ≤ 80; C: Not Tested; D: No Activity Observed in the Reported Assay. The settings on record: for HV activity at 100 ppm PUCCRT 1DP (disease control rating) / HV activity at 100 ppm PUCCRT 3DC (disease control rating): HV application.

Setting [1] is: low volume application, 125.1 g/H, 1 Day Protectant.
The mark [2] stands for this setting: low volume application, 125.1 g/H, 3 Day Curative.
Where [3] appears, read: 100 ppm, 1 Day Protectant, wheat leaf blotch.
The mark [4] stands for this setting: 100 ppm, 3 Day Curative, wheat leaf blotch.
The mark [5] stands for this setting: 100 ppm, 1 Day Protectant, wheat brown rust.
[6] abbreviates: 100 ppm, 3 Day Curative, wheat brown rust.
Where [7] appears, read: low volume application, 125.1 g/H, 1 day protectant.
Setting [8] is: low volume application, 125.1 g/H, 3 day curative.
The mark [9] stands for this setting: high volume application, 100 ppm, 1 day protectant.
The mark [10] stands for this setting: high volume application, 100 ppm, 3 day curative.

On to `CC[C@H](C)[C@H](NC(=O)c1nccc(OC)c1OCOC(C)=O)C(=O)O[C@@H](C)[C@H](Oc1ccc(C(F)(F)F)cc1)C(C)C` [Cmpd 620], for which, in the test with Zymoseptoria tritici (setting [1]), the “SEPTTR 1DP, LV activity at 125.1 g/H (% Control rating)” value (“SEPTTR 1DP … (% Control rating)” for short) is listed as “D”. Further, the “SEPTTR 3DC, LV activity at 125.1 g/H (% Control rating)” value (shortened to “SEPTTR 3DC … (% Control rating)”) with Zymoseptoria tritici (setting [2]) is given as “B (≤ 80)”. Also, the “PUCCRT 1DP, LV activity at 125.1 g/H (% Control rating)” value (“PUCCRT 1DP … (% Control rating)” below) in the test with Puccinia triticina (setting [1]) was “B (≤ 80)”. Further, in the test with Puccinia triticina (setting [2]), the “PUCCRT 3DC, LV activity at 125.1 g/H (% Control rating)” value (from here on “PUCCRT 3DC … (% Control rating)”) is “B (≤ 80)”.

As for `COc1ccnc(C(=O)N[C@H](C(=O)O[C@@H](C)[C@H](Oc2cccc3ccccc23)C(C)C)C(C)C)c1OCOC(C)=O` [Cmpd 624], in the test with Zymoseptoria tritici (setting [1]), the “SEPTTR 1DP … (% Control rating)” value is “B (≤ 80)”. Further, in the test on Zymoseptoria tritici (setting [2]), the “SEPTTR 3DC … (% Control rating)” value is “D”. Further, the “PUCCRT 1DP … (% Control rating)” value in the test with Puccinia triticina (setting [1]) is “A (> 80)”. In addition, the “PUCCRT 3DC … (% Control rating)” value in the test on Puccinia triticina (setting [2]) is listed as “A (> 80)”.

For `COc1ccnc(C(=O)NC(C)C(=O)OC(C(C)C)C(Oc2ccccc2)C(C)C)c1O` (centres unmarked) [Cmpd 1031], the “HV activity at 100 ppm SEPTTR 1DP (disease control rating)” value in the test with Zymoseptoria tritici (setting [3]) is reported as “B (≤ 80)”. Moreover, the “HV activity at 100 ppm SEPTTR 3DC (disease control rating)” value in the test with Zymoseptoria tritici (setting [4]) was “D”. In addition, the “HV activity at 100 ppm PUCCRT 1DP (disease control rating)” value in the test with Puccinia triticina (setting [5]) is reported as “B (≤ 80)”. The “HV activity at 100 ppm PUCCRT 3DC (disease control rating)” value in the test on Puccinia triticina (setting [6]) is given as “D”.

On to `COc1ccnc(C(=O)N[C@@H](C)C(=O)O[C@@H](C)[C@H](Oc2cc(F)cc(Cl)c2)C(C)C)c1OC(C)=O` [Cmpd 628], for which the “SEPTTR 1DP … (% Control rating)” value with Zymoseptoria tritici (setting [1]) is “B (≤ 80)”. Besides, in the test with Zymoseptoria tritici (setting [2]), the “SEPTTR 3DC … (% Control rating)” value was “A (> 80)”. Besides, the “PUCCRT 1DP … (% Control rating)” value in the test with Puccinia triticina (setting [1]) is given as “A (> 80)”. Besides, the “PUCCRT 3DC … (% Control rating)” value in the test with Puccinia triticina (setting [2]) is given as “A (> 80)”.

In the case of `COc1ccnc(C(=O)N[C@@H](C)C(=O)O[C@@H](C)[C@@H](Oc2cccc(C(F)(F)F)c2)C(C)C)c1OCOC(C)=O` [Cmpd 853], in the test with Zymoseptoria tritici (setting [7]), the “SEPTTR 1DP disease control rating, LV activity at 125.1 g/H” value is listed as “B (≤ 80)”. Also, the “SEPTTR 3DC disease control rating, LV activity at 125.1 g/H” value with Zymoseptoria tritici (setting [8]) is “A (> 80)”. Moreover, the “PUCCRT 1DP disease control rating, LV activity at 125.1 g/H” value in the test with Puccinia triticina (setting [7]) is given as “A (> 80)”. Besides, the “PUCCRT 3DC disease control rating, LV activity at 125.1 g/H” value with Puccinia triticina (setting [8]) was “A (> 80)”.

On to `COc1cc(O[C@H](CC(C)C)[C@H](C)OC(=O)[C@H](C)NC(=O)c2nccc(OC)c2OC(C)=O)ccc1Cl` [Cmpd 1116], for which the “LV activity at 125.1 g/H SEPTTR 1DP (disease control rating)” value in the test on Zymoseptoria tritici (low volume application, 125.1 g/H, 1 Day Protectant, wheat leaf blotch) is recorded as “A (> 80)”. Further, in the test on Zymoseptoria tritici (low volume application, 125.1 g/H, 3 Day Curative, wheat leaf blotch), the “LV activity at 125.1 g/H SEPTTR 3DC (disease control rating)” value is “A (> 80)”. In addition, the “LV activity at 125.1 g/H PUCCRT 1DP (disease control rating)” value in the test with Puccinia triticina (low volume application, 125.1 g/H, 1 Day Protectant, wheat brown rust) is recorded as “A (> 80)”. Also, the “LV activity at 125.1 g/H PUCCRT 3DC (disease control rating)” value with Puccinia triticina (low volume application, 125.1 g/H, 3 Day Curative, wheat brown rust) is recorded as “A (> 80)”.

With `COc1ccnc(C(=O)N[C@@H](C)C(=O)O[C@@H](C)[C@@H](CC(C)C)OCC(C)C)c1O` [Cmpd 1044], the “HV activity at 100 ppm SEPTTR 1DP (disease control rating)” value in the test on Zymoseptoria tritici (setting [3]) is listed as “B (≤ 80)”. The “HV activity at 100 ppm SEPTTR 3DC (disease control rating)” value in the test with Zymoseptoria tritici (setting [4]) was “A (> 80)”. The “HV activity at 100 ppm PUCCRT 1DP (disease control rating)” value in the test with Puccinia triticina (setting [5]) is reported as “A (> 80)”. In addition, in the test on Puccinia triticina (setting [6]), the “HV activity at 100 ppm PUCCRT 3DC (disease control rating)” value is “A (> 80)”.

For the compound `COc1ccnc(C(=O)NC(Cc2ccccc2)C(=O)OC(C)C(Oc2ccccc2)C(C)C)c1OCOC(C)=O` (centres unmarked) [Cmpd 865], in the test on Zymoseptoria tritici (setting [7]), the “SEPTTR 1DP disease control rating, LV activity at 125.1 g/H” value was “B (≤ 80)”. Further, in the test on Zymoseptoria tritici (setting [8]), the “SEPTTR 3DC disease control rating, LV activity at 125.1 g/H” value was “B (≤ 80)”. Further, the “PUCCRT 1DP disease control rating, LV activity at 125.1 g/H” value in the test on Puccinia triticina (setting [7]) is listed as “A (> 80)”. Also, the “PUCCRT 3DC disease control rating, LV activity at 125.1 g/H” value with Puccinia triticina (setting [8]) is “A (> 80)”.

In the case of `C=CC[C@@H](OCC1CC1)[C@H](C)OC(=O)[C@H](C)NC(=O)c1nccc(OC)c1O` [Cmpd 1024], the “SEPTTR 1DP disease control rating, HV activity at 100 ppm” value with Zymoseptoria tritici (setting [9]) is “D”. In addition, in the test on Zymoseptoria tritici (setting [10]), the “SEPTTR 3DC disease control rating, HV activity at 100 ppm” value is “B (≤ 80)”. Moreover, the “PUCCRT 1DP disease control rating, HV activity at 100 ppm” value in the test with Puccinia triticina (setting [9]) is “B (≤ 80)”. Moreover, the “PUCCRT 3DC disease control rating, HV activity at 100 ppm” value in the test with Puccinia triticina (setting [10]) was “A (> 80)”.

With `CCCOC(CC)C(Oc1ccccc1)C(C)OC(=O)C1(NC(=O)c2nccc(OC)c2O)CC1` (centres unmarked) [Cmpd 416], the “SEPTTR 1DP disease control rating, HV activity” value in the test with Zymoseptoria tritici (HV application at 100 ppm, 1 Day Protectant, wheat leaf blotch) is “B (≤ 80)”. The “SEPTTR 3DC disease control rating, HV activity” value with Zymoseptoria tritici (HV application at 100 ppm, 3 Day Curative, wheat leaf blotch) is recorded as “D”. In the test with Puccinia triticina (HV application at 100 ppm, 1 Day Protectant, wheat brown rust), the “PUCCRT 1DP disease control rating, HV activity” value is given as “B (≤ 80)”. In the test with Puccinia triticina (HV application at 100 ppm, 3 Day Curative, wheat brown rust), the “PUCCRT 3DC disease control rating, HV activity” value is “D”.

Take `CCC(CC)[C@@H](Oc1cccc(F)c1)[C@H](C)OC(=O)[C@H](C)NC(=O)c1nccc(OC)c1OCOC(C)=O` [Cmpd 586]: the “SEPTTR 1DP … (% Control rating)” value in the test on Zymoseptoria tritici (setting [1]) is “B (≤ 80)”. Also, the “SEPTTR 3DC … (% Control rating)” value with Zymoseptoria tritici (setting [2]) is given as “A (> 80)”. The “PUCCRT 1DP … (% Control rating)” value in the test on Puccinia triticina (setting [1]) was “A (> 80)”. In addition, in the test on Puccinia triticina (setting [2]), the “PUCCRT 3DC … (% Control rating)” value is “A (> 80)”.
